The values that follow come from patent US20250051276A1 (priority 2021, published 2025).

In one assay the test system is rat cortical neurons. Nature of the assay: Neurite outgrowth in primary neuronal cultures assay. Type of assay: cell-based. Particulars: 72 h, vs DMSO control, 10 μM or less. More on the design: key: A: Statistically significant mean increase as a percent of DMSO control at 10 μM or less; B: No statistically significant mean increase as a percent of DMSO control at 10 μM or less. The text has this:
Neurite Outgrowth in Primary Neuronal Cultures Assay. Changes in the pattern of neurite outgrowth have been implicated in psychiatric and neurodegenerative disorders as well as traumatic injuries. The discovery of new compounds that can positively affect neuritogenesis are important for developing new therapeutics for neurological diseases. Measurement of neurite outgrowth of rat cortical neurons using an automated image-based assay was used to determine the neuroplastic effects of the compounds of the present disclosure. The neurite outgrowth assay was performed at Neurofit SAS (France) as described below.
Pregnant Wistar rats (Janvier; France) were used for the study. They were delivered 6 days before their use. Upon arrival at Neurofit animal facility, they were housed one per cage and maintained in a room with controlled temperature (21-22° C.) and a reversed light-dark cycle (12 h/12 h; lights on: 17:30-05:30; lights off: 05:30-17:30) with food and water available ad libitum.
Female Wistar rats of 17 days gestation were killed by cervical dislocation and the fetuses were removed from the uterus. Their brains were placed in ice-cold medium of Leibovitz (L15, Gibco, Fisher bioblock, France). Cortices were dissected and meninges were carefully removed. The cortical neurons were dissociated by trypsinization for 30 min at 37° C. (trypsin-EDTA, Gibco) in presence of 0.1 mg/ml DNAse I (Roche, France). The reaction was stopped by addition of Dulbecco's Modified Eagle Medium (DMEM; Gibco) with 10% of fetal bovine serum (FBS; Gibco). The suspension was triturated with a 10-ml pipette and using a needle syringe 21 G and centrifuged at 350×g for 10 min at room temperature. The pellet of dissociated cells was resuspended in a medium consisting of Neurobasal (Gibco) supplemented with 2% B27 supplement (Gibco), 0.5 mM L-Glutamine (Gibco), an antibiotic-antimicotic mixture. Viable cells were counted in a Neubauer cytometer using the trypan blue exclusion test (Sigma). Cells were seeded at a density of 10000 cells per well in 96-well plate (Costar) precoated with poly-L-lysine. Test compound at different concentrations were added to the cultures. Donepezil (positive control) was tested at 250 nM.
After 72 h (3 days) of plating, cultures were fixed with paraformaldehyde in PBS (4%, Sigma) for 30 min at 4° C. Then, cells were successively permeabilized with 0.1% Triton X100 for 30 min, saturated with PBS containing 3% of BSA and were incubated 1 h with anti-beta III tubulin antibody (Sigma) at 1/10 000 in PBS containing 0.5% of BSA. Cells were washed three times with PBS containing 0.5% of BSA, and they were incubated 1 h with goat anti-mouse antibody coupled with AF488 (Invitrogen A11001) diluted at 1/1000 in PBS containing 0.5% of BSA. Finally, nuclei were staining with DAPI 1 mg/ml at 1/1000 in PBS containing 0.5% of BSA. After rinsing with PBS, the plate was filmed and neurite networks were examined and analyzed using High-Content Screening (CellInsight, Thermo Scientific). The average number of neurites per neuron and the average total length of neurites per neuron were the main parameters analyzed. Analysis of data was performed using analysis of variance (ANOVA). The Fisher's Protected Least Significant Difference test was used for multiple comparisons. A p value ≤0.05 was considered significant. The software used is StatView 5.0 from SAS Institut.

In assay [1] the target is T1, 5-HT2A (Homo sapiens, UniProt P28223). Nature of the assay: Serotonin 5-HT2A in vitro cellular IPOne agonism assay. Type of assay: cell-based. More on the design: host or cells: CHO-K1. Particulars: CHO-K1 cells, IPOne HTRF, agonist mode. The procedure:
Serotonin 5-HT2A In Vitro Cellular IPOne Agonism Assay. The 5-HT2A IPOne HTRF assay was performed at Epics Therapeutics S.A. (Belgium, FAST-0505I) using conventional methods. Briefly, CHO-K1 cells expressing human recombinant 5-HT2A receptor grown to mid-log phase in culture media without antibiotics were detached with PBS-EDTA, centrifuged, and resuspended in medium without antibiotics buffer. 20,000 cells were distributed in a 96 well plate and incubated overnight at 37° C. with 5% CO2.
For agonist testing, the medium was removed and 20 μl of assay buffer plus 20 μl of test compound or reference agonist are added in each well. The plate is incubated for 60 min. at 37° C. with 5% CO2.
(§1) After addition of the lysis buffer containing IP1-d2 and anti-IP1 cryptate detection reagents, plates were incubated 1-hour at room temperature, and fluorescence ratios were measured according to the manufacturer specification, with the HTRF kit.
On the technique in general: Time-resolved FRET reads energy transfer from a long-lived donor to a nearby acceptor.

Assay [2] has as its target T1, 5-HT2A. Description: Serotonin 5-HT2A in vitro cellular IPOne antagonism assay. It is filed as cell-based. Further details: host or cells: CHO-K1. Conditions: CHO-K1 cells, IPOne HTRF, reference agonist a-Me-5HT; read-out: 5-HT2A IPOne Antagonist Activity. The procedure: Serotonin 5-HT2A In Vitro Cellular IPOne Antagonism Assay. The 5-HT2A TPOne HTRF assay was performed at Epics Therapeutics S.A. (Belgium, FAST-0505I) in antagonism mode using conventional methods. Briefly, CHO-K1 cells expressing human recombinant 5-HT2A receptor grown to mid-log phase in culture media without antibiotics were detached with PBS-EDTA, centrifuged, and resuspended in medium without antibiotics buffer. 20,000 cells were distributed in a 96 well plate and incubated overnight at 37° C. with […].
For antagonist testing, a reference agonist a-Me-5HT was added and fluorescence signal monitored for several minutes, followed by addition of 20 μl of assay buffer plus 20 μl of test compound or reference antagonist ketanserin, in each well. The plate was incubated for 60 min. at 37° C. with 5% CO2.
as §1

In assay [3] the target is T1, 5-HT2A. Nature of the assay: Serotonin 5-HT2A in vitro radioligand binding competition assay. Further details: purchased Epics Therapeutics S.A. (Belgium) FAST-0505B; host or cells: membrane extracts. Conditions: radiotracer [3H]-DOI, membrane extracts. On the procedure: Serotonin 5-HT2A In Vitro Radioligand Binding Competition Assay. The 5-HT2A radioligand binding competition assay was performed at Epics Therapeutics S.A. (Belgium, FAST-0505B) using conventional methods. Briefly, competition binding was performed in duplicate in the wells of a 96 well plate (Master Block, Greiner, 786201) containing binding buffer (optimized for each receptor), membrane extracts (amount of protein/well optimized for each receptor), radiotracer [^3H]-DOI (final concentration optimized for each receptor) and test compound. Nonspecific binding was determined by co-incubation with 200-fold excess of cold competitor. The samples were incubated in a final volume of 0.1 ml at a temperature and for a duration optimized for each receptor and then filtered over filter plates. Filters were washed six times with 0.5 ml of ice-cold washing buffer (optimized for each receptor) and 50 µl of Microscint 20 (Packard) were added in each well. The plates were incubated 15 min on an orbital shaker and then counted with a TopCount™ for 1 min/well.

Another assay relates to 5HT2A sensor. Conditions: cited from earlier work.

A value given as a limit tells only on which side of the number the result lay.

T1 sequence (P28223 whole entry): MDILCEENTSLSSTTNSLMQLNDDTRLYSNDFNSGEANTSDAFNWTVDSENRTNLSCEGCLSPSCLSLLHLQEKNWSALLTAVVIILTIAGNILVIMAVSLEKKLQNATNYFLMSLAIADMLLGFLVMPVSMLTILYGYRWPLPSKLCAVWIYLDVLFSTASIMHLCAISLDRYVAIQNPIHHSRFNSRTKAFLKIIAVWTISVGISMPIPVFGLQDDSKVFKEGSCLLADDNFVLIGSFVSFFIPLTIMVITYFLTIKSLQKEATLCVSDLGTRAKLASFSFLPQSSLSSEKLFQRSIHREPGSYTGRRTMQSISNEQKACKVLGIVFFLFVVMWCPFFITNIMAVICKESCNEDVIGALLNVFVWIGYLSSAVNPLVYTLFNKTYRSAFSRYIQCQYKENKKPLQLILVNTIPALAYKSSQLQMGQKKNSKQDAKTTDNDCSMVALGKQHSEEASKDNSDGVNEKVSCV

The term EC50 denotes the concentration that produces a half-maximal response. Consider `C[C@H](Cn1ccc2nc(OCc3ccccc3)ccc21)N(C)C` [Compound 1, (R)-1-(5-(benzyloxy)-1H-pyrrolo[3,2-b]pyridin-1-yl)-N,N-dimethylpropan-2-amine], for which, in the assay with rat cortical neurons, the “Increase in Neurite Length” value is listed as “A”, the “Increase in Neurite Number” value is “A” and the “Increase in Number of Branchpoints” value is reported as “A”. At 5-HT2A [1], this molecule displayed an EC50 above 10000 nM. Besides, the IC50 on 5-HT2A [2] was in the range of 101 to 1000 nM. Besides, on 5-HT2A [3], the IC50 lay within 101 to 1000 nM.
`C[C@@H](N)Cn1ccc2nc(OCc3ccccc3)ccc21` [Compound 2, (R)-1-(5-(benzyloxy)-1H-pyrrolo[3,2-b]pyridin-1-yl)propan-2-amine]: the EC50 at 5-HT2A [1] was above 10000 nM. This molecule registered an IC50 at 5-HT2A [3] above 10000 nM.
Consider `C[C@H](Cn1ccc2cc(OCc3ccccc3)ccc21)N(C)C` [Compound 3, (R)-1-(5-(benzyloxy)-1H-indol-1-yl)-N,N-dimethylpropan-2-amine], for which, in the assay on rat cortical neurons, the “Increase in Neurite Length” value is “A”, the “Increase in Neurite Number” value is listed as “B” and the “Increase in Number of Branchpoints” value is recorded as “B”. For the same molecule, the half-maximal effective concentration (EC50) at 5-HT2A [1] is above 10000 nM. Also, the IC50 on 5-HT2A [2] was in the range of 10 to 100 nM. The IC50 at 5-HT2A [3] was 101 to 1000 nM.
For `CN[C@H](C)Cn1ccc2cc(OCc3ccccc3)ccc21` [Compound 4, (R)-1-(5-(benzyloxy)-1H-indol-1-yl)-N-methylpropan-2-amine], in the assay on rat cortical neurons, the “Increase in Neurite Length” value is reported as “A”, the “Increase in Neurite Number” value is listed as “A” and the “Increase in Number of Branchpoints” value is on record as “A”. The 50% effective concentration (EC50) on 5-HT2A [1] is above 10000 nM. Moreover, the IC50 at 5-HT2A [2] lay within 101 to 1000 nM. The molecule further gave an IC50 at 5-HT2A [3] of 1000 to 10000 nM.
On to `C[C@@H](N)Cn1ccc2cc(OCc3ccc(F)cc3)ccc21` [Compound 5, (R)-1-(5-((4-fluorobenzyl)oxy)-1H-indol-1-yl)propan-2-amine], for which, in the assay on rat cortical neurons, the “Increase in Neurite Length” value is “B”, the “Increase in Neurite Number” value is on record as “B” and the “Increase in Number of Branchpoints” value was “B”. On 5-HT2A [1], this molecule gave an EC50 of 1000 to 10000 nM. At 5-HT2A [2], the IC50 is 101 to 1000 nM. Besides, the IC50 at 5-HT2A [3] lay in the range of 101 to 1000 nM.
In the case of `C[C@@H](N)Cn1ccc2cc(OCc3cccc(F)c3)ccc21` [Compound 6, (R)-1-(5-((3-fluorobenzyl)oxy)-1H-indol-1-yl)propan-2-amine], in the assay on rat cortical neurons, the “Increase in Neurite Length” value is reported as “A”, the “Increase in Neurite Number” value is listed as “B” and the “Increase in Number of Branchpoints” value is given as “A”. Besides, on 5-HT2A [1], the EC50 was 1000 to 10000 nM. Moreover, on 5-HT2A [2], the IC50 lay within 101 to 1000 nM. The IC50 at 5-HT2A [3] lay within 101 to 1000 nM.
On to `C[C@@H](N)Cn1ccc2cc(OCc3ccccc3F)ccc21` [Compound 7, (R)-1-(5-((2-fluorobenzyl)oxy)-1H-indol-1-yl)propan-2-amine], for which, in the assay on rat cortical neurons, the “Increase in Neurite Length” value was “B”, the “Increase in Neurite Number” value is on record as “A” and the “Increase in Number of Branchpoints” value is recorded as “A”. The half-maximal effective concentration (EC50) on 5-HT2A [1] lay within 1000 to 10000 nM. Moreover, on 5-HT2A [3], the IC50 lay in the range of 1000 to 10000 nM.
Take `C[C@H](Cn1ccc2cc(OCc3ccc(F)cc3)ccc21)N(C)C` [Compound 8, (R)-1-(5-((4-fluorobenzyl)oxy)-1H-indol-1-yl)-N,N-dimethylpropan-2-amine]: in the assay on rat cortical neurons, the “Increase in Neurite Length” value is reported as “A”, the “Increase in Neurite Number” value is recorded as “A” and the “Increase in Number of Branchpoints” value is reported as “A”. Besides, the half-maximal effective concentration (EC50) at 5-HT2A [1] is above 10000 nM. On 5-HT2A [2], the IC50 is below 10 nM. The same molecule registered an IC50 at 5-HT2A [3] of 10 to 100 nM.
As for `C[C@H](Cn1ccc2cc(OCc3cccc(F)c3)ccc21)N(C)C` [Compound 9, (R)-1-(5-((3-fluorobenzyl)oxy)-1H-indol-1-yl)-N,N-dimethylpropan-2-amine], in the assay with rat cortical neurons, the “Increase in Neurite Length” value is “A”, the “Increase in Neurite Number” value is recorded as “A” and the “Increase in Number of Branchpoints” value is “A”. The molecule further returned a half-maximal effective concentration (EC50) on 5-HT2A [1] above 10000 nM. The IC50 on 5-HT2A [2] is 10 to 100 nM. For the same molecule, the IC50 at 5-HT2A [3] lay in the range of 101 to 1000 nM.
Turning to `C[C@H](Cn1ccc2cc(OCc3ccccc3F)ccc21)N(C)C` [Compound 10, (R)-1-(5-((2-fluorobenzyl)oxy)-1H-indol-1-yl)-N,N-dimethylpropan-2-amine], in the assay on rat cortical neurons, the “Increase in Neurite Length” value is “A”, the “Increase in Neurite Number” value is reported as “A” and the “Increase in Number of Branchpoints” value is recorded as “A”. The EC50 at 5-HT2A [1] is above 10000 nM. For the same molecule, on 5-HT2A [2], the IC50 lay within 101 to 1000 nM. On 5-HT2A [3], the IC50 lay within 10 to 100 nM.
On to `CCN(CC)[C@H](C)Cn1ccc2cc(OCc3ccccc3)ccc21` [Compound 11, (R)-1-(5-(benzyloxy)-1H-indol-1-yl)-N,N-diethylpropan-2-amine], for which, in the assay on rat cortical neurons, the “Increase in Neurite Length” value is recorded as “A”, the “Increase in Neurite Number” value is given as “A” and the “Increase in Number of Branchpoints” value is “A”. On 5-HT2A [1], the EC50 was above 10000 nM. Further, on 5-HT2A [2], the IC50 was in the range of 101 to 1000 nM. Moreover, on 5-HT2A [3], the IC50 was in the range of 1000 to 10000 nM.
Take `C[C@H](Cn1ccc2cc(OCc3ccccc3)ccc21)N1CCCC1` [Compound 12, (R)-5-(benzyloxy)-1-(2-(pyrrolidin-1-yl)propyl)-1H-indole]: in the assay on rat cortical neurons, the “Increase in Neurite Length” value is “A”, the “Increase in Neurite Number” value is on record as “A” and the “Increase in Number of Branchpoints” value is recorded as “B”. In addition, on 5-HT2A [1], the 50% effective concentration (EC50) is above 10000 nM. Moreover, the IC50 on 5-HT2A [2] lay within 101 to 1000 nM. On 5-HT2A [3], the IC50 was in the range of 1000 to 10000 nM.
On to `CN(C)CCc1c[nH]c2ccccc12` [DMT, N,N-dimethyltryptamine], for which the “activation of the 5HT2A sensor assay in agonist mode” value with 5HT2A sensor is listed as “activate the 5HT2A sensor assay in agonist mode”.
As for `COc1cc(CC(C)N)c(OC)cc1I` (stereo not drawn) [DOI], the “activation of the 5HT2A sensor assay in agonist mode” value in the assay with 5HT2A sensor was “activate the 5HT2A sensor assay in agonist mode”.
